Experimental data reported in patent publication US20260041741A1, “CD39 AND CD73 FOR THE THERAPY OF HEMORRHAGIC SHOCK” (The Trustees of Columbia University in the City of New York, priority 2023, published 2026).

B1: rhCD73: recombinant human (rh) CD73 from Daresbury Proteins; CD73 mimic (protein, UniProt P21589 27-549, looked up)
5'-nucleotidase: WELTILHTNDVHSRLEQTSEDSSKCVNASRCMGGVARLFTKVQQIRRAEPNVLLLDAGDQYQGTIWFTVYKGAEVAHFMNALRYDAMALGNHEFDNGVEGLIEPLLKEAKFPILSANIKAKGPLASQISGLYLPYKVLPVGDEVVGIVGYTSKETPFLSNPGTNLVFEDEITALQPEVDKLKTLNVNKIIALGHSGFEMDKLIAQKVRGVDVVVGGHSNTFLYTGNPPSKEVPAGKYPFIVTSDDGRKVPVVQAYAFGKYLGYLKIEFDERGNVISSHGNPILLNSSIPEDPSIKADINKWRIKLDNYSTQELGKTIVYLDGSSQSCRFRECNMGNLICDAMINNNLRHTDEMFWNHVSMCILNGGGIRSPIDERNNGTITWENLAAVLPFGGTFDLVQLKGSTLKKAFEHSVHRYGQSTGEFLQVGGIHVVYDLSRKPGDRVVKLDVLCTKCRVPSYDPLKMDEVYKVILPNFLANGGDGFQMIKDELLRHDSGDQDINVVSTYISKMKVIYPAVEGRIKFS

Experiments:
[1] = test system: rat model of T/HS; details: posttreatment; cited from earlier work
[2] = test system: T/HS mice; assay: Plasma IL-6 and IL-10 by ELISA after trauma/hemorrhagic shock; assay type: in vivo; details: T/HS mice compared to vehicle-treated T/HS mice
Description: (§1) In one set of studies, wild-type mice were randomly assigned into the following groups: trauma/sham shock (T/SS) receiving vehicle (saline), trauma/hemorrhagic shock (T/HS) receiving vehicle (saline), T/HS receiving POM1 (5 mg/kg), T/HS receiving apyrase (125 U/kg), T/HS receiving PSB 12379 (50 mg/kg), and T/HS receiving rhCD73 (2 mg/kg). In addition, in another group of studies, CD39^−/−, CD73^−/−, A2BAR^−/− and wild-type type mice were subjected to T/SS or T/HS. Some CD39^−/− and CD73^−/− were pretreated with NECA (0.0025 mg/kg). In pharmacological experiments, mice were pretreated intraperitoneally (30 min before T/SS or T/HS) with various agents.
(§2) The mice were given anesthesia using 1% isoflurane and their rectal temperature was maintained between 36.5 and 37.5° C. using a feedback-controlled homeothermic blanket heating system (Sumno-suite, Kent Scientific). Hemorrhagic shock was induced using a fixed-pressure model. Initially, a midline laparotomy of 2 cm was performed on the anesthetized mice, which was later closed with a 4-0 silk suture (034902, Covetrus, USA). Following this, catheters were placed in the right and left femoral arteries for monitoring blood pressure and blood withdrawal, respectively. A sterile 1-ml syringe with a 30G needle attached to PE-10 tubing filled with 0.2 ml of 1% heparinized saline was used for blood withdrawal, and each mouse received 1U heparin. Blood pressure was monitored using a continuous blood-pressure monitoring system (Powerlab 8/30, ADInstruments, Colorado Springs, CO, USA). After 5 minutes of baseline blood pressure recording, a drug or vehicle was administered to the mice, followed by inducing shock for a period of 2.5 hours, during which the blood pressure was maintained between 28-32 mmHg by withdrawing or reinfusing the shed blood. At the end of the shock period, the mice were resuscitated with Ringer's Lactate at three times the amount of shed blood for 15 minutes (32). Three hours after resuscitation, the mice were euthanized and bronchoalveolar lavage fluid (BALF), blood, and tissue samples were collected. T/SS animals were exposed to the same procedures as other animals except for blood withdrawal (FIG. 1).
IL-6 and IL-10 levels were measured in plasma samples using enzyme-linked immunosorbent assay (ELISA) kits (DY406, DY417; R&D Systems Minneapolis, USA) according to the manufacturer's instructions (32).

[3] = test system: T/HS mice; assay: Plasma AST and ALT levels (liver injury) after trauma/hemorrhagic shock; assay type: in vivo; details: for T/HS-enhanced ALT level in plasma / T/HS-enhanced AST level in plasma: wild-type T/HS mice vs vehicle, i.p. pretreatment 30 min before shock; for liver injury: T/HS mice
Description: as §1, §2
Plasma samples were analyzed to determine the levels of aspartate aminotransferase (AST) and alanine aminotransferase (ALT). To do this, the samples were diluted with AST (TR70121 Thermo Fisher, USA) and ALT (TR71122 Thermo Fisher, USA) reagents at a 1:10 ratio, and the resulting light signal was measured using a spectrophotometer at 340 and 405 nm (32).

[4] = test system: T/HS mice; assay: Pulmonary neutrophil sequestration (lung MPO activity) after trauma/hemorrhagic shock; assay type: in vivo; details: for neutrophil sequestration / infiltration in lung (MPO activity): wild-type T/HS mice vs vehicle, i.p. pretreatment 30 min before shock, POM1 5 mg/kg, apyrase 125 U/kg, PSB 12379 50 mg/kg, rhCD73 2 mg/kg; for neutrophil infiltration (lung MPO activity): NECA pretreatment 0.0025 mg/kg
Description: as §1, §2
Lung, liver, kidney, and gut samples were pooled from 4 mice in the same group, homogenized, sonicated, and treated with a 1×RIPA Buffer with Protease/phosphatase inhibitor cocktail (P8340, Sigma, USA), and the resulting homogenate was centrifuged at 13.000× g for 10 minutes at 4° C. Total protein content was determined by using Qubit 4.0 Fluorometer (Thermo Fisher, USA) as per the manufacturer's instructions.
To evaluate neutrophil sequestration in the lung following T/SS or T/HS, myeloperoxidase (MPO) activity was assessed using an MPO activity kit (MAK068, Sigma, USA). The supernatant of lung lysates was assayed according to the manufacturer's instructions (32).

[5] = test system: T/HS mice; assay: Lung permeability (Evans blue dye) after trauma/hemorrhagic shock; assay type: in vivo; details: wild-type T/HS mice vs vehicle; i.p. pretreatment 30 min before shock; POM1 5 mg/kg, apyrase 125 U/kg, PSB 12379 50 mg/kg, rhCD73 2 mg/kg
Description: as §1, §2
Mice were re-anesthetized with isoflurane 3 hours after the end of resuscitation. Evans blue dye (EBD) technique was used to determine lung permeability. EBD was administered through the tail vein, and about 1 ml of blood was withdrawn from the tail artery five minutes later. The supernatant of BALF was assayed at 620 nm spectrophotometrically. The amount of Evans blue dye in the BALF was then expressed as a proportion of the amount in the plasma. (5, 32).

[6] = test system: CD39 deficient mice; details: cardiac, renal, hepatic, intestinal ischemia-reperfusion, exogenous supplementation; cited from earlier work
[7] = test system: hypoxic CD73 deficient mice; details: exogenous administration; cited from earlier work

| Molecule | lung permeability [1] | neutrophil infiltration into the lung [1] | plasma IL-6 levels [2] | plasma IL-10 levels [2] | T/HS-enhanced ALT level in plasma [3] | T/HS-enhanced AST level in plasma [3] | neutrophil sequestration / infiltration in lung (MPO activity) [4] | T/HS-induced lung injury (lung permeability, EBD method) [5] | increased ischemic organ injury [6] | liver injury [3] | increased vascular permeability [7] | polymorphonuclear neutrophil extravasation [7] | neutrophil infiltration (lung MPO activity) ([4]; CD39-/- mice after T/HS) | neutrophil infiltration (lung MPO activity) ([4]; CD73-/- mice after T/HS) |
| --- | --- | --- | --- | --- | --- | --- | --- | --- | --- | --- | --- | --- | --- | --- |
| N#Cc1c(N)nc(SCC(N)=O)c(C#N)c1-c1ccc(OCC2CC2)cc1 [BAY 60-6583] | decreases | not |  |  |  |  |  |  |  |  |  |  |  |  |
| sodium polyoxotungstate [POM1] |  |  | higher | similar | increased | increased | exacerbated | exacerbated |  |  |  |  |  |  |
| apyrase |  |  | lower | increased | suppressed | suppressed | moderated | moderated | reversed | decreased |  |  |  |  |
| CCNC(=O)[C@H]1O[C@@H](n2cnc3c(N)ncnc32)[C@H](O)[C@@H]1O [NECA, 1-(6-Amino-9H-purin-9-yl)-1-deoxy-N-ethyl-β-D-ribofuranuronamide] |  |  |  |  |  |  |  |  |  |  | reversed | reversed | decreased | decreased |
| O=P(O)(O)CP(=O)(O)OC[C@H]1O[C@@H](n2cnc3c(NCc4ccccc4)ncnc32)[C@H](O)[C@@H]1O.[Na].[Na] [PSB 12379, N6-Benzyl-α,β-methyleneadenosine 5′-diphosphate disodium salt] |  |  | increased | reduced | increased | increased | increased | increased |  |  |  |  |  |  |
| B1 |  |  | decreased | increased | suppressed | suppressed | decreased | decreased |  | decreased |  |  |  |  |
